Assay results published in publication PMC6226181 (PLoS ONE, 2018).
Non-standard residues stand in square brackets, D forms with d. Residues, ends and D or L forms follow the SMILES beside them. *: point of attachment. AFC = O=c1cc(C(F)(F)F)c2ccc(N*)cc2o1; AMC = Cc1cc(=O)oc2cc(N*)ccc12

Key:
anthrax lethal factor [1] = target: T1, anthrax lethal factor (Bacillus anthracis, UniProt P15917); assay type: biochemical; details: 5 hours at 37°C
anthrax lethal factor [2] = target: T1, anthrax lethal factor; assay type: biochemical; details: 5 hours at 37°C; remark: listed apart in the source
anthrax lethal factor [3] = target: T1, anthrax lethal factor; details: cited from earlier work

T1 sequence (P15917 34-809 limits assumed): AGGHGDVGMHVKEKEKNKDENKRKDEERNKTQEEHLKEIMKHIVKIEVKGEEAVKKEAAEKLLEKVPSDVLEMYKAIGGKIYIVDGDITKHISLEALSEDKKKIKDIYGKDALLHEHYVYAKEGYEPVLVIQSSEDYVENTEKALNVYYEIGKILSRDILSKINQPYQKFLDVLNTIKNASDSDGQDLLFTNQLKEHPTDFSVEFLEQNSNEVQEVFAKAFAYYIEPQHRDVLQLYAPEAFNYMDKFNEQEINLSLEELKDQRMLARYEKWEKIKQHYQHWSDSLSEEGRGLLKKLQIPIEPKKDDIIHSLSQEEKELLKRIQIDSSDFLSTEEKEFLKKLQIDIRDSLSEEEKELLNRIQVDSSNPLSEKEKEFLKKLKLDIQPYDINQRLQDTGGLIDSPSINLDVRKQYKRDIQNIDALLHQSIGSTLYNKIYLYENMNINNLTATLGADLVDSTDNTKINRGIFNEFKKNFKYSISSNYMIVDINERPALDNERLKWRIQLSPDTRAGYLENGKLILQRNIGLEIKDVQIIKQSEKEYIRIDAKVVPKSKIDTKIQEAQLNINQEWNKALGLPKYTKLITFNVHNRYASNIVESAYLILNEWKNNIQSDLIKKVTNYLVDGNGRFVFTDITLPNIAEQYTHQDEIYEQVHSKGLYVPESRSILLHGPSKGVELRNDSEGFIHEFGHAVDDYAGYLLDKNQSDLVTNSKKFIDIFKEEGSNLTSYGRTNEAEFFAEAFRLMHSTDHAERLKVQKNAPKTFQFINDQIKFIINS

CC(=O)N[C@H](CCCCN)C(=O)N[C@H](CCCCN)C(=O)N[C@H](C(=O)N[C@@H](Cc1ccc(O)cc1)C(=O)N1CCC[C@H]1C(=O)Nc1ccc2c(C)cc(=O)oc2c1)C(C)C [LBL 10100] (Ac-[dK][dK]VYP-{AMC})
Cleavage by LF in assay buffer (increase in fluorescence) (anthrax lethal factor [1]): eliminates hydrolysis at the concentrations of LF used

CC(=O)N[C@@H](CCCNC(=N)N)C(=O)N[C@@H](CCCNC(=N)N)C(=O)N[C@@H](CCCCN)C(=O)N[C@@H](CCCCN)C(=O)N[C@H](C(=O)N[C@@H](Cc1ccc(O)cc1)C(=O)N1CCC[C@H]1C(=O)Nc1ccc2c(C)cc(=O)oc2c1)C(C)C [LBL 10079] (Ac-RRKKVYP-{AMC})
Cleavage by LF in 1:10 diluted bovine plasma (increase in fluorescence) (anthrax lethal factor [2]): does not correlate with the amount of LF

CC(=O)N[C@H](CCCNC(=N)N)C(=O)N[C@H](CCCNC(=N)N)C(=O)N[C@H](CCCCN)C(=O)N[C@H](CCCCN)C(=O)N[C@H](C(=O)N[C@@H](Cc1ccc(O)cc1)C(=O)N1CCC[C@H]1C(=O)Nc1ccc2c(C)cc(=O)oc2c1)C(C)C [LBL 10097] (Ac-[dR][dR][dK][dK]VYP-{AMC})
Cleavage by LF in 1:10 diluted bovine plasma (increase in fluorescence) (anthrax lethal factor [2]): dependent upon the presence and amount of LF

CC(=O)N[C@@H](CCCNC(=N)N)C(=O)N[C@H](CCCNC(=N)N)C(=O)N[C@H](CCCCN)C(=O)N[C@H](CCCCN)C(=O)N[C@H](C(=O)N[C@@H](Cc1ccc(O)cc1)C(=O)N1CCC[C@H]1C(=O)Nc1ccc2c(C(F)(F)F)cc(=O)oc2c1)C(C)C [LBL 10108] (Ac-R[dR][dK][dK]VYP-{AFC})
Non-specific cleavage in plasma in the absence of LF (plasma proteases): neither peptide is cleaved in plasma in the absence of LF

7-methoxy-coumarin-4-acetyl (Mca)-Arg-Arg-Lys-Lys-Val-Tyr-Pro-Try-Pro-Met-Glu -2,4-dinitrophenol (DNP) -Thr-Ile-Ala
Cleavage by LF (anthrax lethal factor [3]): cleaved by LF after the first proline
